The values below come from paper PMC9021288 (Nature Communications, 2022).

“And” between values parts separate entries of the source, which are not always exact repeats. Equal values may be shown once.

As usually defined, the amount remaining is what is left of the initial amount, in per cent. For orientation: hepatocyte CLint means the capacity of the preparation to metabolise the compound, expressed as a volume cleared per time. As a reminder, the IC50 is the concentration that gives 50% inhibition.

The subject of data set [1] is P. falciparum Pf3D7^0087/N9. The experiment in a line: Single dose in vivo efficacy in humanized NSG mice. On the set-up: species or system Plasmodium falciparum. How it is done: The effect of pantothenamides on P. falciparum Pf3D7^0087/N9 [66] in vivo was assessed in female NSG mice (NODscidIL2Rγ^null) at the Swiss Tropical and Public Health Institute (Basel, Switzerland) as described previously (Supplementary Table 30)[15],[67]. Briefly, humanized mice were engrafted daily with human erythrocyte suspensions from days -11 to day 6. […] On day 4, groups of n = 2 mice were treated with a single dose pantothenamides or chloroquine (50 mg/kg) by oral gavage. […] Serial dilutions were prepared in the same solvent to concentrations 50 times higher than the corresponding CAL and QC concentrations. The concentrations were calculated under consideration of purity and salt factor. The spiking of the CAL and QC sample were performed at room temperature.

Data set [2] concerns human G6PD-A-deficient RBCs. Nature of the data set: Hemolytic toxicity in NSG mice engrafted with G6PD-deficient human RBCs. As to conditions: Primaquine group.
Description: Hemolytic toxicity was determined in female NSG mice (Jackson Laboratories) using erythrocytes from a G6PD-A-deficient blood donor (0.4 u/g hemoglobin).
The nature of a further data set: in vitro. To be noted: human. From the text: (§1) Briefly, cryopreserved human primary hepatocytes were thawed and cultured as described above.
The test system of another data set is HepG2 cells. Nature of the data set: HepG2 viability (resazurin). As to conditions: human, 10 µM. How it is done: Safety studies were performed by commercial services using their standard protocols. […] Genotoxicity was investigated using the Ames test (Bacterial Reverse Mutation Assay) (Covance Laboratories Ltd, North Yorkshire, England). In vitro mammalian cell micronucleus screening assay was studied in human peripheral blood lymphocytes (BioReliance Corporation, Rockville, USA). Cardiotoxicity was determined against the hERG channel in an automated patch clamp assay using the Qpatch or against the hNaV 1.5, hKV 1.5 and hCaV 1.2 using a manual patch-clamp technique (Metrion Biosciences, Cambridge, UK). Cytotoxicity in human and rat primary hepatocytes was assessed using the CellTiter-Blue assay performed by commercial services (KaLy-Cell). The viability of HepG2 cells was monitored through the addition of 1 mM resazurin. Following 6 h incubation, the relative amount of reduced resazurin was detected in a fluorimeter and compared to the assay controls (vehicle: 0.1% DMSO and positive control: 10 µM puromycin).

Data set [3] relates to cryopreserved human primary hepatocytes. The experiment in a line: Human hepatocyte clearance (relay assay). As to conditions: 10 µM, single replicates.
Description: as §1

Another data set concerns P. falciparum 3D7. Nature of the data set: Parasite reduction rate (PRR) in vitro killing rate assay. The class given is cell-based, Plasmodium falciparum. As for the experimental part: The antimalarial killing rate was determined by GlaxoSmithKline (GSK, Tres Cantos, Madrid, Spain) as described previously. […] The number of viable parasites was determined on day 21 and 28 by counting the wells with parasite growth.

Data set [4] relates to P. falciparum NF54 asexual blood-stage parasites. The experiment in a line: 72-h asexual blood-stage replication assay (SYBR Green). The class given is cell-based, Plasmodium falciparum. To be noted: asexual blood stages NF54 parasites; read-out: IC50. How it is done: Replication assays were performed using a SYBR Green method as described previously. Briefly, asynchronous parasites were diluted to 0.83% parasitemia, 3% hematocrit in 30 µl medium, and added to 30 µl of diluted compounds in medium (0.1% DMSO final concentration) in black 384-wells plates. After a 72-h incubation, 30 µl of SYBR Green diluted in lysis buffer was added according to the manufacturer’s protocol (Life Technologies). Fluorescence intensity was measured on a BioTek Synergy 2 Plate Reader after 1-h incubation and was normalized to a DMSO control (100% growth) and DHA- or epoxomicin-treatment (no growth). […] Parasite survival was assessed by flow cytometry on an Accuri C6 (BD Biosciences) with BD C6 Plus software using SYBR Green and MitoTracker Deep Red FM (Life Technologies) as nuclear stain and vital dye, respectively, and data were analyzed using FlowJo (10.5.0). […] Luminescence was measured after 72 h using the Renilla-Glo(R) Luciferase Assay System (Promega E2750) and the GlomAX® Discover Multimode Microplate Reader (Promega). The luminescence values were normalized to DMSO vehicle (100% growth) and 200 nM chloroquine-treated (no growth) samples as controls.
Dose-response assays were analyzed by a nonlinear regression using a four-parameter model and the least squares method to find the best fit. One-way Analysis of variance (ANOVA) was performed using the Bonferroni’s Multiple Comparison Test. For the majority of experiments, 2-4 biological replicates were performed. Typically, 2 replicates were performed for screening activities, and a minimum of 3 replicates are performed for other experiments unless stated otherwise.

As for `CCN(CC)CCCC(C)Nc1ccnc2cc(Cl)ccc12` (stereo not shown) [CQ, chloroquine, reference compound], the Parasitemia in data set [1] (day 5 post infection, 50 mg/kg p.o. on day 4, per mouse, 50 mg/kg) was 0.12 and 0.07; in data set [1] (day 6 post infection, per mouse), 0 and 0.01; in data set [1] (day 7 post infection, per mouse), 0.
For the molecule `COc1cc(NC(C)CCCN)c2ncccc2c1` (stereo not shown) [Primaquine], in data set [2] (day 0, individual mice), the “Human RBCs” value is 74.3% and 71.3% and 74.2% and 65%; the Reticulocytes was 0.41% and 0.56% and 0.49% and 0.54%. Besides, in data set [2] (day 4, individual mice), the “Human RBCs” value was 54.6% and 45.9% and 58.7% and 49.1%; the Reticulocytes was 5.2% and 2.88% and 7.64% and 5.35%. Besides, in data set [2] (day 7, individual mice), the “Human RBCs” value is 13.5% and 5.35% and 9.52% and 4.33%; the Reticulocytes was 4.47% and 5.69% and 5.07% and 8.31%. In data set [2] (individual mice), the Hematocrit was 31.37% and 28.81% and 29.69% and 29.51%; the Spleen weight was 1.219 % of body weight and 1.099 % of body weight and 1.08 % of body weight and 1.161 % of body weight.
On to `CCCCNC(=O)NS(=O)(=O)c1ccc(C)cc1` [Tolbutamide], for which, in “in vitro” (hepatocytes, % Remaining), the amount remaining at 0 h, 10 µM worked out at 100% and the fraction remaining at 3 h, 10 µM amounted to 98.8%.
As to `COc1ccc(C[C@H](N)C(=O)N[C@H]2[C@@H](O)[C@H](n3cnc4c(N(C)C)ncnc43)O[C@@H]2CO)cc1` [puromycin], in the data set with HepG2 cells, the “HepG2 viability assay, raw signal, MIN average” value was 764.
`CCOc1ccc2ccc(=O)oc2c1` [7-Ethoxycoumarin]: the “% Remaining” value in data set [3] (hepatocyte donor HC06, 3 h) worked out at 76.9%; in data set [3] (hepatocyte donor HC06, 6 h) it was 57.5%; in data set [3] (hepatocyte donor HC425, 6 h), 78.5%; in data set [3] (hepatocyte donor HC425, 24 h), 39.0%; in data set [3] (hepatocyte donor HC425, 48 h) it was 22.9%; in data set [3] (hepatocyte donor HC425, 72 h), 4.8%. Besides, the “% Remaining” value is reported as 50.4% in data set [3] (hepatocyte donor HC1010, 3 h) and 26.9% in data set [3] (hepatocyte donor HC1010, 6 h). The fraction remaining at 0 h, 10 µM in the data set “in vitro” (% Remaining, 10 µM, hepatocyte donor HC02, 0 h, single replicates) is 100%; in “in vitro” (% Remaining, 10 µM, hepatocyte donor HC06, 0 h, single replicates) it was 100%; in “in vitro” (% Remaining, 10 µM, hepatocyte donor HC425, 0 h, single replicates) it was 100%; in “in vitro” (% Remaining, 10 µM, hepatocyte donor HC1010, 0 h, single replicates) it was 100%. In addition, the share remaining at 6 h, 10 µM in “in vitro” (% Remaining, 10 µM, hepatocyte donor HC02, 6 h, single replicates) was 2.2%; in “in vitro” (% Remaining, 10 µM, hepatocyte donor HC06, 6 h, single replicates), 56.3%; in the data set “in vitro” (% Remaining, 10 µM, hepatocyte donor HC425, 6 h, single replicates) it was 72.1%; in “in vitro” (% Remaining, 10 µM, hepatocyte donor HC1010, 6 h, single replicates), 29.5%. In addition, the fraction remaining at 3 h, 10 µM in “in vitro” (% Remaining, 10 µM, hepatocyte donor HC06, 3 h, single replicates) was found to be 80.9%; in “in vitro” (% Remaining, 10 µM, hepatocyte donor HC1010, 3 h, single replicates), 46.7%. The share remaining at 24 h, 10 µM in the data set “in vitro” (% Remaining, 10 µM, hepatocyte donor HC425, 24 h, single replicates) was 33.1%; in the data set “in vitro” (% Remaining, 10 µM, hepatocyte donor HC1010, 24 h, single replicates), 2%. The fraction remaining at 48 h, 10 µM in the data set “in vitro” (cryopreserved human primary hepatocytes (relay assay), % Remaining, 10 µM, hepatocyte donor HC425, 48 h, single replicates) turned out to be 25.4%. Also, the fraction remaining at 72 h, 10 µM in the data set “in vitro” (cryopreserved human primary hepatocytes (relay assay), % Remaining, 10 µM, hepatocyte donor HC425, 72 h, single replicates) is 8.2%. Also, the hepatocyte CLint came to 21.2 µL/min/1e6 cells in the data set “in vitro” (cryopreserved human primary hepatocytes (relay assay), CLint, donor HC02); 3.14 µL/min/1e6 cells in the data set “in vitro” (cryopreserved human primary hepatocytes (relay assay), CLint, donor HC06); 6.28 µL/min/1e6 cells in “in vitro” (cryopreserved human primary hepatocytes (relay assay), CLint, donor HC1010). Moreover, the hepatocyte CLint at 10 µM in “in vitro” (cryopreserved human primary hepatocytes (relay assay), CLint, donor HC425) came out at 1.19 µL/min/1e6 cells.
For the molecule `CCc1nc(N)nc(N)c1-c1ccc(Cl)cc1` [Pyrimethamine], the “Average (log parasites +1)” value with P. falciparum 3D7 (24 h) was 4.95; with P. falciparum 3D7 (48 h) it was 1.57; in the data set on P. falciparum 3D7 (72h), 0.53; in the data set with P. falciparum 3D7 (96h) it was 0.00; in the data set with P. falciparum 3D7 (120h) it was 0.00. For the same molecule, the “log (parasites +1)” value in the data set with P. falciparum 3D7 (96h) and in the data set with P. falciparum 3D7 (120h) was 0 throughout. In addition, the parasites in the data set on P. falciparum 3D7 (96h) and in the data set on P. falciparum 3D7 (120h) was 0 throughout.
As to `C[C@@H](CNC(=O)[C@H](O)C(C)(C)CO)NC(=O)c1ccc(F)cc1` [MMV1542002], the IC50 in data set [4] was determined as 82 nM.
Same read-out and setting: under `C[C@@H](CNC(=O)C(=O)C(C)(C)CO)NC(=O)CCc1ccccc1F` [MMV1545786] stands 1000 nM.
Still for that read-out and setting: to `C[C@@H](CNC(=O)[C@H](O)C(C)(C)CNS(C)(=O)=O)NC(=O)CCc1ccccc1F` [MMV1545779] belongs above 1000 nM.
